For experiment [1], the target named is T1, Prostaglandin E2 receptor EP2 subtype (Homo sapiens, UniProt P43116). Nature of the experiment: Displacement of [3H]PGE2 from human EP2 receptor expressed in HEK293 cells at pH 7.3 membranes incubated for 60 mins. The class given is cell-based.
For experiment [2], the target named is T1, Prostaglandin E2 receptor EP2 subtype. Kind of experiment: Agonist activity at human recombinant EP2 receptor expressed in HEK293 cells assessed as effect on calcium accumulation by Fluo-4 AM dye based FLIPR assay. In kind it is functional, cell-based.
The subject of experiment [3] is Canis familiaris. Kind of experiment: Effect on ocular surface hyperemia in Beagle dog assessed as maximum ocular surface hyperemia score assigned value at 0.1% administered topically to one eye immediately after first intraocular pressure reading by pneumatonometry. In kind it is functional, Canis lupus familiaris.
Experiment [4] relates to Rhesus monkey. Nature of the experiment: Reduction in intraocular pressure in monkey assessed as maximal change in intraocular pressure at 0.1% administered topically to one eye immediately after first intraocular pressure reading by pneumatonometry. In kind it is functional, Macaca mulatta.
Experiment [5] has as its system Canis familiaris. Nature of the experiment: Effect on ocular surface hyperemia in Beagle dog assessed as maximum ocular surface hyperemia score assigned value at 0.3% administered topically to one eye immediately after first intraocular pressure reading by pneumatonometry. In kind it is functional, Canis lupus familiaris.
In experiment [6] the test system is Rhesus monkey. Kind of experiment: Reduction in intraocular pressure in monkey assessed as maximal change in intraocular pressure at 0.3% administered topically to one eye immediately after first intraocular pressure reading by pneumatonometry. The class given is functional, Macaca mulatta.
Experiment [7] has as its system Rhesus monkey. Nature of the experiment: Reduction in intraocular pressure in monkey assessed as maximal change in intraocular pressure at 0.01% administered topically to one eye immediately after first intraocular pressure reading by pneumatonometry. In kind it is functional, Macaca mulatta.
Experiment [8] deals with Prostaglandin E2 receptor EP4 subtype (Homo sapiens, UniProt P35408). Kind of experiment: Displacement of [3H]PGE2 from human EP4 receptor expressed in HEK293 cells membranes incubated for 60 mins. In kind it is cell membranes. In general terms: Loss of bound radioactivity is the signal in a displacement assay; it reports binding, not function.
Sequence of Prostaglandin E2 receptor EP4 subtype (P35408 whole entry): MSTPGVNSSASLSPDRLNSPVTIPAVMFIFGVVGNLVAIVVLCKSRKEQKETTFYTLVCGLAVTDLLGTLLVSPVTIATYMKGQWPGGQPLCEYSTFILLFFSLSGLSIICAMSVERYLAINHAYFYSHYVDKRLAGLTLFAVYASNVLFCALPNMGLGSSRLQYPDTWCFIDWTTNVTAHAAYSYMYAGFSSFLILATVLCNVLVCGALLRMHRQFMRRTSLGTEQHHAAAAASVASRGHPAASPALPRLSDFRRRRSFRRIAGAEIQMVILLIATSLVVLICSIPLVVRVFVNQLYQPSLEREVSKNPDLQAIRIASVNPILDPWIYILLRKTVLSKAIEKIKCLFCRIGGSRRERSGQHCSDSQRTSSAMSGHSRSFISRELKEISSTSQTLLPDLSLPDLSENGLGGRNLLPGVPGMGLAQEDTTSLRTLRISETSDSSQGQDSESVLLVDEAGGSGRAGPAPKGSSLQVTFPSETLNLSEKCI

We go through 14 molecules from ChEMBL document CHEMBL3882734, “Therapeutic compounds” (2010).

One may read the Ki as the equilibrium dissociation constant of an inhibitor or competing ligand from its target. In general, EC50 refers to the concentration needed to bring the measured effect to its halfway point.

T1 sequence (P43116 whole entry): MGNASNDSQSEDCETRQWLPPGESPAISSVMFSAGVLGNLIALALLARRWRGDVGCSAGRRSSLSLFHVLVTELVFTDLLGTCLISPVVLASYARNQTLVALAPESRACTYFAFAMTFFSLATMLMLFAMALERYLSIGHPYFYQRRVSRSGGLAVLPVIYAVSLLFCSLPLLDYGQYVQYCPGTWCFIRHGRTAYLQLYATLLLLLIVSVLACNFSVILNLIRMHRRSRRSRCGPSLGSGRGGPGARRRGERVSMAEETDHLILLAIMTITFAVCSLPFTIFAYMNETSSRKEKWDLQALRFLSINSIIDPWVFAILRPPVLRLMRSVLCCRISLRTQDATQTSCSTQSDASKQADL

For `CCCCCC(O)c1ccc([C@H]2CC[C@@H](Cl)[C@@H]2CCCCCCC(=O)OC)cc1` (stereo partly specified), the Ki in experiment [1] (hek293) worked out at 50 µM. For the same molecule, the 50% effective concentration (EC50) in experiment [2] (hek293) is 50 µM.

Take `O=C(O)CCC/C=C\C[C@@H]1[C@@H](c2ccc(C(O)C3CCCCC3)cc2)[C@H](O)C[C@H]1Cl` (stereo partly specified): the Activity_index in the experiment on Canis familiaris [3] amounted to 1.

With `CCCCCC(O)c1ccc([C@@H]2[C@@H](C/C=C\CCCC(=O)OC(C)C)[C@H](Cl)C[C@H]2Cl)cc1` (stereo partly specified), in the experiment with Rhesus monkey [4], the Activity was 19 mmHg.

As to `CCCCCC(O)c1cccc([C@H]2CCC(=O)[C@@H]2CCCCCCC(=O)OC)c1` (stereo partly specified), in experiment [1] (hek293), the affinity corresponds to a Ki of 50 µM. Moreover, in experiment [2] (hek293), the EC50 came to 50 µM.

Regarding `O=C(O)CCC/C=C\C[C@@H]1[C@@H](c2ccc3c(c2)CCC3O)[C@H](O)C[C@H]1Cl` (stereo partly specified), in the experiment on Canis familiaris [5], the Activity_index amounted to 1. For the same molecule, in the experiment on Rhesus monkey [6], the Activity was found to be 7 mmHg.

In the case of `CC(C)OC(=O)CCC/C=C\C[C@@H]1[C@@H](c2ccc(C(O)C3CCCCC3)cc2)[C@H](O)C[C@H]1Cl` (stereo partly specified), the Activity with Rhesus monkey [7] is given as 5 mmHg.

Consider `CCCCCC(=O)c1ccc([C@@H]2[C@@H](C/C=C\CCCC(=O)OC(C)C)[C@H](Cl)C[C@H]2O)cc1`, for which the Activity in the experiment on Rhesus monkey [4] was determined as 20 mmHg.

As to `CCCCCC(=O)c1ccc([C@@H]2[C@@H](C/C=C\CCCC(=O)O)[C@H](Cl)C[C@H]2O)cc1`, the Activity in the experiment on Rhesus monkey [4] amounted to 31 mmHg.

As for `CCCCCC(O)c1ccc([C@H]2CCC=C2CCCCCCC(=O)OC)cc1` (stereo partly specified), the Ki in experiment [1] (hek293) is 50 µM. Further, in experiment [2] (hek293), the EC50 came to 50 µM.

As for `CCCCCC(O)c1ccc([C@H]2CC[C@@H](F)[C@@H]2CCCCCCC(=O)OC)cc1` (stereo partly specified), the affinity in experiment [1] (hek293) corresponds to a Ki of 50 µM. The EC50 in experiment [2] (hek293) was 50 µM.

In turn, `CCCCCC(=O)c1ccc([C@H]2[C@H](O)CC(=O)[C@@H]2C/C=C\CCCC(=O)O)cc1` registered a Ki in experiment [8] of 2.81 µM. Also, the EC50 in experiment [2] was found to be 0.031 µM.

As for `CC(C)OC(=O)CCCCCC[C@@H]1[C@@H](c2ccc(C(C)(C)C)cc2)[C@H](O)C[C@H]1Cl`, in the experiment with Rhesus monkey [7], the Activity was 8 mmHg.

In experiment [1], `CCCCCC(O)c1ccc([C@H]2CC[C@@H](Cl)[C@@H]2CCCCCCCO)cc1` (stereo partly specified) had a Ki of 50 µM. For the same molecule, the EC50 in experiment [2] was 50 µM.

Turning to `CC(C)OC(=O)CCC/C=C\C[C@@H]1[C@@H](c2ccc(C(C)(C)CO)cc2)[C@H](O)C[C@H]1Cl`, the Activity in the experiment on Rhesus monkey [4] came out at 6 mmHg.
